Results as given in ChEMBL document CHEMBL6083260, “Dizocilpine derivatives as neuroprotective NMDA receptor antagonists without psychomimetic side effects” (Eur J Med Chem, 2024).
Calls of active or inactive are those of the source. No cut-off for these calls is given here.

How the values were obtained:
[1] = target: T1, Glutamate NMDA receptor; GRIN1/GRIN2A (Homo sapiens, UniProt Q05586+Q12879); test: Antagonist activity at human GluN1/GluN2A receptor expressed in HEK293 cells assessed as inhibition of L-glutamate induced response at 3 uM at -60 mV membrane potential by patch clamp electrophysiology analysis; type: cell-based
[2] = Cytotoxicity against CHO-K1 cells assessed as reduction in cell viability incubated for 24 hrs by MTT assay; type: toxicity, cell-based; conditions: Chinese hamster (Cricetulus griseus)
[3] = target: T2, Glutamate NMDA receptor; GRIN1/GRIN2B (Homo sapiens, UniProt Q05586+Q13224); test: Antagonist activity at human GluN1/GluN2B receptor expressed in HEK293 cells assessed as inhibition of L-glutamate induced response at 3 uM at -60 mV membrane potential by patch clamp electrophysiology analysis; type: cell-based
[4] = Inhibition of human recombinant AChE measured by Ellman's method
[5] = Toxicity in male Wistar rat assessed as effect on pre-pulse inhibition of acoustic startle response induced deficit at 0.3 mg/kg, ip mg/kg by prepulse inhibition test; type: organism-based; conditions: in vivo
[6] = Toxicity in male Wistar rat assessed as hyperlocomotion at 0.2 mg/kg, ip incubated for 10 min by open field test; type: organism-based; conditions: in vivo
[7] = Toxicity in male Wistar rat assessed as effect on pre-pulse inhibition of acoustic startle response induced deficit at 1 to 10 mg/kg, ip by prepulse inhibition test; type: organism-based; conditions: in vivo, dose 1-10 mg/kg
[8] = Toxicity in male Wistar rat assessed as locomotion at 1 to 10 mg/kg, ip incubated for 15 min by open field test; type: organism-based; conditions: in vivo, 0.25 h, dose 1-10 mg/kg
[9] = target: T1, Glutamate NMDA receptor; GRIN1/GRIN2A; test: Antagonist activity at human GluN1/GluN2A receptor expressed in HEK293 cells assessed as inhibition of L-glutamate induced response at -40 mV membrane potential by patch clamp electrophysiology analysis; type: cell-based
[10] = target: T2, Glutamate NMDA receptor; GRIN1/GRIN2B; test: (§1) Antagonist activity at human GluN1/GluN2B receptor expressed in HEK293 cells assessed as inhibition of L-glutamate/glycine-induced steady state conditions of the current response at holding - 60 mV potential by measuring offset time constant at 1 to 100 uM incubated for 2 min followed by compound washout measured by patch clamp electrophysiology analysis; type: cell-based; conditions: filed as antagonist, dose 1-100 µM
[11] = target: T1, Glutamate NMDA receptor; GRIN1/GRIN2A; test: Antagonist activity at human GluN1/GluN2A receptor expressed in HEK293 cells assessed as inhibition of offset time constant at -60 mV membrane potential by patch clamp electrophysiology analysis relative to control; type: cell-based; conditions: filed as antagonist, dose 1.0 µM
[12] = target: T2, Glutamate NMDA receptor; GRIN1/GRIN2B; test: as §1, with “onset” for “offset”; type: cell-based; conditions: filed as antagonist, dose 1-100 µM
[13] = target: T1, Glutamate NMDA receptor; GRIN1/GRIN2A; test: as §1, with “GluN1/GluN2A” for “GluN1/GluN2B”, “onset” for “offset”; type: cell-based; conditions: filed as antagonist, dose 1-100 µM
[14] = Toxicity in male Wistar rat assessed as decrease respiration at 20 mg/kg, ip; type: organism-based; conditions: in vivo
[15] = target: T1, Glutamate NMDA receptor; GRIN1/GRIN2A; test: as §1, with “GluN1/GluN2A” for “GluN1/GluN2B”; type: cell-based; conditions: filed as antagonist, dose 1-100 µM
[16] = target: T2, Glutamate NMDA receptor; GRIN1/GRIN2B; test: Antagonist activity at human GluN1/GluN2B receptor expressed in HEK293 cells assessed as inhibition of L-glutamate induced response at -40 mV membrane potential by patch clamp electrophysiology analysis; type: cell-based
[17] = Toxicity in male Wistar rat assessed as no observed adverse effect level (NOAEL) at 10 mg/kg, ip; type: organism-based; conditions: in vivo
[18] = Toxicity in male Wistar rat assessed as loss of activity at 20 mg/kg, ip; type: organism-based; conditions: in vivo
[19] = target: T1, Glutamate NMDA receptor; GRIN1/GRIN2A; test: Antagonist activity at human GluN1/GluN2A receptor expressed in HEK293 cells assessed as inhibition of L-glutamate induced response at -60 mV membrane potential by patch clamp electrophysiology analysis; type: cell-based
[20] = target: T2, Glutamate NMDA receptor; GRIN1/GRIN2B; test: Antagonist activity at human GluN1/GluN2B receptor expressed in HEK293 cells assessed as inhibition of L-glutamate induced response at -60 mV membrane potential by patch clamp electrophysiology analysis; type: cell-based
[21] = tested on: Rattus norvegicus; test: In vivo neuroprotective activity in NMDA-induced hippocampal lesion male Wistar rat model assessed as decrease in damage score at 30 uM; type: functional, organism-based
[22] = target: T1, Glutamate NMDA receptor; GRIN1/GRIN2A; test: Antagonist activity at human GluN1/GluN2A receptor expressed in HEK293 cells assessed as inhibition of […] response at 1 uM onset measured by patch clamp electrophysiology analysis; type: cell-based; conditions: filed as antagonist

Structure (SMILES)	inhibition [1] [%]	IC50 at 24 h [2] [µM]	inhibition ([1]; filed as antagonist) [%]	inhibition ([3]; filed as antagonist) [%]	other results
CN1CCN(C2c3ccccc3CCc3ccccc32)CC1	9.7	122	–	–	inhibition [3]: 9.49%
C1=Cc2ccccc2C(NC2CCCCC2)c2ccccc21	–	81.3	92.1	92.4	IC50 [4]: 8.5 µM
CCNC1c2ccccc2C=Cc2ccccc21	39.9	498	–	59.9	–
C[C@]12N[C@H](Cc3ccccc31)c1ccccc12 [DIZOCILPINE]	–	–	–	–	Activity [5]: Toxic; Activity [6]: Toxic
C1=Cc2ccccc2C(N2CCCCC2)c2ccccc21	29.9	381	–	58.4	–
CC(C)NC1c2ccccc2C=Cc2ccccc21	–	251	75.6	76	–
CC(C)NC1c2ccccc2CCc2ccccc21	–	263	52.2	76.9	–
COCCNC1c2ccccc2C=Cc2ccccc21	35.6	390	–	60	–
OCCNC1c2ccccc2C=Cc2ccccc21	38.2	333	–	48.8	–
c1ccc2c(c1)CCc1ccccc1C2N1CCOCC1	6.78	95.2	–	–	inhibition [3]: 3.43%
c1ccc2c(c1)CCc1ccccc1C2NC1CC1	–	177	40.1	53.6	–
C1=Cc2ccccc2C(NC2CC2)c2ccccc21	–	260	45	57.2	–
CC(C)CNC1c2ccccc2C=Cc2ccccc21.Cl	–	102	93.2	91.8	Activity [7]: Toxic; Activity [8]: Non-toxic; IC50 [9]: 22.4 µM; Activity [10]: Active; Compound Exhibited Slower Time Constant Offset Than 3L; inhibition [11]: 99%; Activity [12]: Active; Activity [13]: Active; Activity [14]: Toxic; Activity [15]: Active; Compound Exhibited Slower Time Constant Offset Than 3L; IC50 [16]: 11.7 µM; Activity [17]: Non-toxic; Activity [18]: Toxic
CC(C)CNC1c2ccccc2CCc2ccccc21	–	92.4	76.8	91.6	–
CNC1c2ccccc2CCc2ccccc21	–	410	82.3	71	–
c1ccc2c(c1)CCc1ccccc1C2N1CCCCC1	5.4	73.8	–	–	inhibition [3]: 5.2%
CCNC1c2ccccc2CCc2ccccc21	34	364	–	51.8	–
CCCCNC1c2ccccc2CCc2ccccc21	–	128	76.4	85.8	–
c1ccc2c(c1)CCc1ccccc1C2NC1CCCCC1	–	85	79.4	86	IC50 [4]: 14.4 µM
CCN(CC)C1c2ccccc2CCc2ccccc21	–	86.4	68.4	75	–
c1ccc2c(c1)CCc1ccccc1C2N1CCCC1	–	97.7	49.8	62.1	–
CCCCNC1c2ccccc2C=Cc2ccccc21	–	101	81.1	79.2	–
C1=Cc2ccccc2C(N2CCOCC2)c2ccccc21	31.9	165	–	57.6	–
CNC1(c2ccccc2Cl)CCCCC1=O (stereo not drawn) [KETAMINE]	–	–	–	–	IC50 [19]: 0.5 µM; IC50 [9]: 53.3 µM; IC50 [20]: 0.51 µM; IC50 [16]: 15.2 µM
Cl.OCCNC1c2ccccc2CCc2ccccc21	–	720	48	49.7	Activity [7]: Toxic; Activity [21]: Active; Activity [8]: Non-toxic; IC50 [9]: 276 µM; inhibition [11]: 99%; Activity [12]: Active; Activity [13]: Active; Activity [14]: Toxic; TIME [22]: 0.000112 h; IC50 [16]: 215 µM; Activity [17]: Non-toxic; Activity [18]: Toxic
COCCNC1c2ccccc2CCc2ccccc21	34.9	385	–	66.6	–
CCN1CCN(C2c3ccccc3CCc3ccccc32)CC1	7.64	147	–	–	inhibition [3]: 5.22%
C1=Cc2ccccc2C(N2CCCC2)c2ccccc21	–	> 900	48.6	85.5	–
CNC1c2ccccc2C=Cc2ccccc21	–	299	54.3	68.9	–
